Assay results from ChEMBL document CHEMBL1201862, “PubChem BioAssay data set” (2004).
Calls of active or inactive are those of the source.

Key:
[1] = target: Luciferin 4-monooxygenase (Photinus pyralis, UniProt P08659); assay: inhibition of purified Photinus pyralis luciferase – biochemical, luminescence, dose response (AID 1891)
[2] = target: Prothrombin (Bos taurus, UniProt P00735); assay: thrombin protease inhibitors – biochemical, fluorescence polarization, uHTS hits, dose response (AID 602369); type: functional
[3] = target: 72 kDa type IV collagenase (Homo sapiens, UniProt P08253); assay: Dose Response validation of uHTS RPN11 inhibitor hits using a MMP-2 Fluorescence assay.; type: functional
[4] = target: 26S proteasome non-ATPase regulatory subunit 14 (Homo sapiens, UniProt O00487); assay: inhibition of proteasome subunit RPN11 – biochemical, fluorescence polarization, uHTS hits, confirmation (AID 602368); type: functional
[5] = Luminescence Cell-Based Dose Confirmation HTS to Identify Inhibitors of Platelet Dense Granule Release. [Related pubchem assays: 1663 (Primary HTS), 1678 (Summary of Project)]; type: functional
[6] = target: Large T antigen (Simian virus 40, UniProt P03070); type: functional, Betapolyomavirus macacae;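 also: Confirmatory-stage PubChem screen for compounds that inhibit SV40 T antigen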
[7] = target: Glucose-6-phosphate 1-dehydrogenase (Homo sapiens, UniProt P11413); assay: inhibition of Homo sapiens G6PD, dose series – biochemical, fluorescence, selectivity assay for P. falciparum G6PD inhibitor project, dose response (AID 504792); type: functional
[8] = target: Intestinal-type alkaline phosphatase (Homo sapiens, UniProt P09923); assay: human intestinal alkaline phosphatase activators, dose response, biochemical, luminescence, uHTS hits (AID 463120); type: functional
[9] = target: T1, RNA-binding protein pos-1 (Caenorhabditis elegans, UniProt G5EF15); assay: disruptors of C. elegans POS-1 RNA interaction – biochemical, fluorescence polarization, dose response (AID 1964);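 also: purified POS-1 fused to maltose binding protein made in E. coli; potency of compounds blocking POS-1 binding to fluorescent RNA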
T1 sequence (G5EF15 whole entry): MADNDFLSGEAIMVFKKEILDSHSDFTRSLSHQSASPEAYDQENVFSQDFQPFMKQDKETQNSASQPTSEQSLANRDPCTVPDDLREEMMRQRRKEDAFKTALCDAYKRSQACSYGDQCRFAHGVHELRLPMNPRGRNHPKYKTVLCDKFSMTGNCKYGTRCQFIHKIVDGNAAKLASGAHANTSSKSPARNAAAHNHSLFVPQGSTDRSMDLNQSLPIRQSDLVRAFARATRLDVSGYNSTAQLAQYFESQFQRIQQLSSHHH

[10] = target: T2, Zinc finger protein mex-5 (Caenorhabditis elegans, UniProt Q9XUB2); assay: potency of MEX-5 RNA-binding blockers – biochemical, C. elegans, fluorescence polarization, dose response (AID 1960)
T2 sequence (Q9XUB2 whole entry): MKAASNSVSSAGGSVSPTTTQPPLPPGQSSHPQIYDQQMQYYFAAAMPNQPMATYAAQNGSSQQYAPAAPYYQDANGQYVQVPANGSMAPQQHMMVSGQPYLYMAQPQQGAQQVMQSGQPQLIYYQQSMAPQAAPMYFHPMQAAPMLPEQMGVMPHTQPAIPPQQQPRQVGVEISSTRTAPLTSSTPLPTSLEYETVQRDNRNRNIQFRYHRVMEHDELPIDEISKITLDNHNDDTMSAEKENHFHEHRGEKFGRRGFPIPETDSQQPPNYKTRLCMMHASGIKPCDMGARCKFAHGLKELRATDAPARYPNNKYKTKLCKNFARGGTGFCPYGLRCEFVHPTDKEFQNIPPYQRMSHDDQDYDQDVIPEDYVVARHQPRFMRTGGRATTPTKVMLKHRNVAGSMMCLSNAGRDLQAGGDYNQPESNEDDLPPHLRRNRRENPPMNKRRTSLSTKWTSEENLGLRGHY

[11] = target: T3, Apoptotic protease-activating factor 1 (Homo sapiens, UniProt O14727); type: functional
T3 sequence (O14727 whole entry): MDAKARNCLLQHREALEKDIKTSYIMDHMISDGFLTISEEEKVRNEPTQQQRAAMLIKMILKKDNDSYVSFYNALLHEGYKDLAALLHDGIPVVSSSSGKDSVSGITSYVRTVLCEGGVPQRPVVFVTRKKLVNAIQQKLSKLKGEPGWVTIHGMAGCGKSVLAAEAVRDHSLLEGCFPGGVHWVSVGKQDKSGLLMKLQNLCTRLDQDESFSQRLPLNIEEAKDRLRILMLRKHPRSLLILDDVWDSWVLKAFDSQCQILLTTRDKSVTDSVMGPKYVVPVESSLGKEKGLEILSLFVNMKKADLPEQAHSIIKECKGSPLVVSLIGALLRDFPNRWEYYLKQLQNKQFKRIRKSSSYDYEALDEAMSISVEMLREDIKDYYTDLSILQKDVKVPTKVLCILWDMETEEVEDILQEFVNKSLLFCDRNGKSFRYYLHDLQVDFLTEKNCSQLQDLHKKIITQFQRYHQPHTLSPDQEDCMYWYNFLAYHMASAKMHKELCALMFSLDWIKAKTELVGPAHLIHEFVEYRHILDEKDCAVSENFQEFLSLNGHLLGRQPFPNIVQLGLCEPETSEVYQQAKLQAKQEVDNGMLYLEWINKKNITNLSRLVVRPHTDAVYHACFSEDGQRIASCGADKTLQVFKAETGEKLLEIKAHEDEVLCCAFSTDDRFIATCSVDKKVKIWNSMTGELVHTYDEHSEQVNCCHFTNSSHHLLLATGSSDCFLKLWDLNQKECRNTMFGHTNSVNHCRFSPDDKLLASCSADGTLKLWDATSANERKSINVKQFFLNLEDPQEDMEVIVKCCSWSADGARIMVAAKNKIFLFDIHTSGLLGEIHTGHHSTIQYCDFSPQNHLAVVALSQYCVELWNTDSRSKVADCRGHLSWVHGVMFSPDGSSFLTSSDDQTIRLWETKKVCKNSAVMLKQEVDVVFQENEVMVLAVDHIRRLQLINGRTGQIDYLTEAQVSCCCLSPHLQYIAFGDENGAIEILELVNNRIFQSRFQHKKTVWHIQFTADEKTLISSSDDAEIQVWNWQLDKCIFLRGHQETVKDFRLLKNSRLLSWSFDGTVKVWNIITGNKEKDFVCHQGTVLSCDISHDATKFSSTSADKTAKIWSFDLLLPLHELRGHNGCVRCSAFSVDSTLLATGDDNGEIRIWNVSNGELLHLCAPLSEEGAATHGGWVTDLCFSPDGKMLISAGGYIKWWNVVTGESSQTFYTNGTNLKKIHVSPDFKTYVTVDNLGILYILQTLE

[12] = target: Genome polyprotein (dengue virus type 2, UniProt P29990); assay: flavivirus cap methylation enzyme inhibition – biochemical, confirmation dose response, primary screen (AID 588689); type: functional
[13] = system: Streptococcus sp. 'group A'; assay: Streptococcus pyogenes SK(-)GAS viability under kanamycin – luminescence, BacTiterGlo, confirmation, counter-screen for streptokinase expression inhibitor project, dose response (AID 1900); type: functional, organism-based
[14] = system: Streptococcus; assay: GAS UMAA2166 growth inhibition – luminescence, BacTiterGlo, counter-screen for streptokinase expression inhibitor project, dose response (AID 1915); type: functional, organism-based;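 also: potency for reduction of bacterial viability or growth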
[15] = target: DNA (cytosine-5)-methyltransferase 1 (Homo sapiens, UniProt P26358); assay: inhibition of DNA methylation by DNMT1 – biochemical, fluorescent molecular beacon, confirmation (AID 602386); type: functional
[16] = target: T4, Streptokinase A (Streptococcus pyogenes serotype M1, UniProt P10520); assay: viability-normalized secreted streptokinase activity reduction – plasminogen activation absorbance, OD405, dose response (AID 1914); type: functional, Streptococcus pyogenes M1 GAS;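 also: secreted streptokinase activity via plasminogen activation per viability signal from cell pellet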
T4 sequence (P10520 whole entry): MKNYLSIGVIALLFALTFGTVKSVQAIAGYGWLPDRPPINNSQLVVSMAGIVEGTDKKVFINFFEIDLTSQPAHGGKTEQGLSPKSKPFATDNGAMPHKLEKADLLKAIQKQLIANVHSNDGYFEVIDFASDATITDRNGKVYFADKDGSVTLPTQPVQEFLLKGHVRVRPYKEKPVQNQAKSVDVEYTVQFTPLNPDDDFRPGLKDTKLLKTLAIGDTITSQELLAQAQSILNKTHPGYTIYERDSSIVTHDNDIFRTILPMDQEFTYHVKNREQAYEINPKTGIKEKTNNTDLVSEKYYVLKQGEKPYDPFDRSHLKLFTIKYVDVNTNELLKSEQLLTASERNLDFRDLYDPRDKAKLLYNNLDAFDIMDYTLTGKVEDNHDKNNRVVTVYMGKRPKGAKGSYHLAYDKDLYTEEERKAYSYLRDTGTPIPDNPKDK

[17] = system: BJ; assay: cells; type: functional, cell-based; settings: Homo sapiens
[18] = system: BJ; assay: BJ-TERT fibroblast viability loss – cell-based, RAS-independent, luminescence, dose response (AID 1933); type: functional; settings: Homo sapiens
[19] = DRD fibroblast viability loss – cell-based, non-viral oncogenic, luminescence, dose response (AID 1934); type: functional; settings: Homo sapiens
[20] = system: BJ; assay: BJ-TERT-LT-ST fibroblast viability loss – cell-based, RAS-independent, luminescence, dose response (AID 1935); type: functional; settings: Homo sapiens;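 also: BJ fibroblasts immortalized with TERT plus LT and ST oncogenes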
[21] = HEK-293T viability loss after treatment – luminescence, T-cell screen hits, cytotoxicity control for TCR NF-kB inhibitor project, dose response (AID 489026); type: functional, cell-based;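 also: cells exposed to compound about 14 hours before the viability readout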
[22] = target: Nonstructural protein 1 (Influenza A virus, UniProt Q194T2); type: functional, Influenza A virus (A/California/07/2009(H1N1))
[23] = NIH3T3 cell viability loss – ATP luminescence, mouse fibroblasts, counter-screen, dose response (AID 2010); type: functional, cell-based;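 also: cells exposed to compound for about 90 hours before reading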
[24] = Luminescence-based dose response cell-based high throughput screening assay for cytotoxic compounds using the IEC-6 intestinal epithelial cell line. [Related pubchem assays: 1858 (Summary AID.), 1825 (Counterscreen.), 1907 (Confirmation screen.)]; type: functional
[25] = Trypanosoma cruzi growth suppression in host cells – NIH3T3 host cells, beta-gal luminescence, confirmation (AID 2044); type: functional, cell-based;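 also: intracellular parasites grown in NIH/3T3 mouse fibroblasts as host cells; luminescent beta-galactosidase reporter signal from transgenic T. cruzi replicating inside host cells; inhibitors lower the luminescence signal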
[26] = system: INS1; assay: INS-1E survival protection against cytokine death – cell-based, luminescence, retest, dose response (AID 449756); type: functional; settings: Rattus norvegicus;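 also: cell death triggered by IL-1 beta plus TNF-alpha plus IFN-gamma mixture; protective hits raise ATP signal compared with cytokine alone wells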

72 kDa type IV collagenase, sequence (P08253 whole entry): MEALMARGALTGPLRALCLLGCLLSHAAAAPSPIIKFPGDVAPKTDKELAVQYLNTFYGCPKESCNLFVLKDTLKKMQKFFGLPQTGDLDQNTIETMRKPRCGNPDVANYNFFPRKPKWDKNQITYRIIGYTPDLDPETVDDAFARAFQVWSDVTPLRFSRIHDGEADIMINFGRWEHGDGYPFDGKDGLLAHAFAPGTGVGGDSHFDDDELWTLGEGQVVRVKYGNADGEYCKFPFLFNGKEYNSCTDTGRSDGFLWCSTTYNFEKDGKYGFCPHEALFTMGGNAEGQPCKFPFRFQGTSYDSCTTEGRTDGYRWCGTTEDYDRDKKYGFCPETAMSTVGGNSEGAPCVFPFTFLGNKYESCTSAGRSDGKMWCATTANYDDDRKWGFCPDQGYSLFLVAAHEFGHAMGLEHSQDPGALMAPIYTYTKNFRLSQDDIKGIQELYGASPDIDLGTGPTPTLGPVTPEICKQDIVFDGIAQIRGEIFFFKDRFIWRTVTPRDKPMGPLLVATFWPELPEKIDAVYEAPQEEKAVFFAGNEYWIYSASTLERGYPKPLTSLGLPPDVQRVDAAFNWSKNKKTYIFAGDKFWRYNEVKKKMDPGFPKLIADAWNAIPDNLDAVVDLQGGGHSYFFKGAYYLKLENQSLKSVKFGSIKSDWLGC
26S proteasome non-ATPase regulatory subunit 14, sequence (O00487 whole entry): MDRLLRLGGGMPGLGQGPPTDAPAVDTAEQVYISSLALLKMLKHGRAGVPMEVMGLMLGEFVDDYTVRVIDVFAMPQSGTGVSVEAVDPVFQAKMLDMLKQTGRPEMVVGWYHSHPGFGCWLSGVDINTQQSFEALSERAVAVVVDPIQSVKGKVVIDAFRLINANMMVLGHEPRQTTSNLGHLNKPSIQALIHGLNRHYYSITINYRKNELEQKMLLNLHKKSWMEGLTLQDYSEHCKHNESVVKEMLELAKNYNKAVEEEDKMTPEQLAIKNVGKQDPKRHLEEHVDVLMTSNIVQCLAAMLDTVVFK
DNA (cytosine-5)-methyltransferase 1, sequence (P26358 whole entry): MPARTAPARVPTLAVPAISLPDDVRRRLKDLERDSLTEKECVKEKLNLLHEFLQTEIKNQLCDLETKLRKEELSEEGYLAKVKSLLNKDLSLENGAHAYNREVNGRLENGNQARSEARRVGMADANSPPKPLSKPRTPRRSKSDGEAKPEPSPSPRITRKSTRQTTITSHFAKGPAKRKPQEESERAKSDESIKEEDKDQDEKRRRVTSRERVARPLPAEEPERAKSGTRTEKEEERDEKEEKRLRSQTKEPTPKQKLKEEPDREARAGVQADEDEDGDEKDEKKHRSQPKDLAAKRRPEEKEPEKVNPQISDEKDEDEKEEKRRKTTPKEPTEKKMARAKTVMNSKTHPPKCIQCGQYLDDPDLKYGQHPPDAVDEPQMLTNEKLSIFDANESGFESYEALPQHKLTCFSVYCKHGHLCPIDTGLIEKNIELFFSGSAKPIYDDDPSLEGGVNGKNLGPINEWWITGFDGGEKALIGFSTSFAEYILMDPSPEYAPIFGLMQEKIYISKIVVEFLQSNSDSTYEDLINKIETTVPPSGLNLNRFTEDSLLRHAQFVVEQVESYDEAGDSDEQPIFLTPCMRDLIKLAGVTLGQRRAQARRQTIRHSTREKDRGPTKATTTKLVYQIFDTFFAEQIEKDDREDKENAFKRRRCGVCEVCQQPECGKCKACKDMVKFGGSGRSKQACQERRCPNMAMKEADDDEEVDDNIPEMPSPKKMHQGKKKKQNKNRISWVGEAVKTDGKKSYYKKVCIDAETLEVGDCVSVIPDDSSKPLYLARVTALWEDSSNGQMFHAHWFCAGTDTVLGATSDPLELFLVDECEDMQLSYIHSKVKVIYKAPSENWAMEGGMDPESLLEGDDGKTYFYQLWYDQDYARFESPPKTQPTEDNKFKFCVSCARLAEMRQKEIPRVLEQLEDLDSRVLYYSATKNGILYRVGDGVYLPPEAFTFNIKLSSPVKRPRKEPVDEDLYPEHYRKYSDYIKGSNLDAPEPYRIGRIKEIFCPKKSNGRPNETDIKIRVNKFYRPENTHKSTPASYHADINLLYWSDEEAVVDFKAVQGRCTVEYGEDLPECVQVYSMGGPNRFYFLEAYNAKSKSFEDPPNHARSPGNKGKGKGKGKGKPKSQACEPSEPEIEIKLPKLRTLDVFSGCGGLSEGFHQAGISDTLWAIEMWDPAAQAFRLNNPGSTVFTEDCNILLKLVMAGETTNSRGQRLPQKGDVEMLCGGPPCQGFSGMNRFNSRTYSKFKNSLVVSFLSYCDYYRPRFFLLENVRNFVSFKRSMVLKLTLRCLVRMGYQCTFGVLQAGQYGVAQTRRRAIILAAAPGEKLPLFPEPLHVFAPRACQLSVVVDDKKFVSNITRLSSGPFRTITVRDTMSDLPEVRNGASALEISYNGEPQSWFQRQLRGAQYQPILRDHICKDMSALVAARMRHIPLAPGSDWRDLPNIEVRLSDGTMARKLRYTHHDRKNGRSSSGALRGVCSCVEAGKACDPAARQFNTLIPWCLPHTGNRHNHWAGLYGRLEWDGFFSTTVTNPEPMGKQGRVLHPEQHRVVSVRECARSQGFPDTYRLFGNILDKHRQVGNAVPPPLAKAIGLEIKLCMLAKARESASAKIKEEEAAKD
Glucose-6-phosphate 1-dehydrogenase, sequence (P11413 whole entry): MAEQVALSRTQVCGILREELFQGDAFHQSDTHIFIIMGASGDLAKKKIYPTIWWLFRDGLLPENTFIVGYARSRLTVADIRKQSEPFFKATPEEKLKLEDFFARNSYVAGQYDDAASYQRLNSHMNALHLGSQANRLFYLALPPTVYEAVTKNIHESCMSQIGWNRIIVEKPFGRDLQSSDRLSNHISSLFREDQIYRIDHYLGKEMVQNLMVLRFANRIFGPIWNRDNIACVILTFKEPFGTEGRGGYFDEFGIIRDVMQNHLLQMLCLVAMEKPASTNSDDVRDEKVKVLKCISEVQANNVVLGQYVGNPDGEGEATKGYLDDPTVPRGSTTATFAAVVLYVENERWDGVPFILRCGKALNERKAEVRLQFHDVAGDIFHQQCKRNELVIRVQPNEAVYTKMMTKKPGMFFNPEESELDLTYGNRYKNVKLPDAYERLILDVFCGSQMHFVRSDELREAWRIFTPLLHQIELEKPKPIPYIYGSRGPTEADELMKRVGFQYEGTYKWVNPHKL
Nonstructural protein 1, sequence (Q194T2 whole entry): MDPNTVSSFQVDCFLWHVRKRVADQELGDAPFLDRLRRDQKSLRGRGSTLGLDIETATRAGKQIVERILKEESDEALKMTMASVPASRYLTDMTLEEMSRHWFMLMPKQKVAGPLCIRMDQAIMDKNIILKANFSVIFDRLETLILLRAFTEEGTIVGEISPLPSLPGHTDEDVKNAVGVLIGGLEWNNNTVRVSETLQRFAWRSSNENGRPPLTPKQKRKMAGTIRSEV
Intestinal-type alkaline phosphatase, sequence (P09923 whole entry, the tested form may be a part): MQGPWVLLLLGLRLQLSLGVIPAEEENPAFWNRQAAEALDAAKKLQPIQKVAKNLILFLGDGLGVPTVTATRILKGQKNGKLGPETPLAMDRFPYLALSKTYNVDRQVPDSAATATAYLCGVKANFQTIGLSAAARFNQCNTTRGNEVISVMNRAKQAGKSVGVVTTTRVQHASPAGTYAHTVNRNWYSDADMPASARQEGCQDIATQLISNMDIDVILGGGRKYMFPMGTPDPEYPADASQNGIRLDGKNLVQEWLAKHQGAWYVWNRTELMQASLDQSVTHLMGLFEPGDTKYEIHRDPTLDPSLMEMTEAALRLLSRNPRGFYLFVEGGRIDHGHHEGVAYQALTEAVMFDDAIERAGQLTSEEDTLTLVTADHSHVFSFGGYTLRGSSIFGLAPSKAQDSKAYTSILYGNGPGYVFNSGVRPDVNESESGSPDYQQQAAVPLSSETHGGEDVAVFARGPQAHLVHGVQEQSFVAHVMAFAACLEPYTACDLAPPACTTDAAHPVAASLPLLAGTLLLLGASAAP
Luciferin 4-monooxygenase, sequence (P08659 whole entry): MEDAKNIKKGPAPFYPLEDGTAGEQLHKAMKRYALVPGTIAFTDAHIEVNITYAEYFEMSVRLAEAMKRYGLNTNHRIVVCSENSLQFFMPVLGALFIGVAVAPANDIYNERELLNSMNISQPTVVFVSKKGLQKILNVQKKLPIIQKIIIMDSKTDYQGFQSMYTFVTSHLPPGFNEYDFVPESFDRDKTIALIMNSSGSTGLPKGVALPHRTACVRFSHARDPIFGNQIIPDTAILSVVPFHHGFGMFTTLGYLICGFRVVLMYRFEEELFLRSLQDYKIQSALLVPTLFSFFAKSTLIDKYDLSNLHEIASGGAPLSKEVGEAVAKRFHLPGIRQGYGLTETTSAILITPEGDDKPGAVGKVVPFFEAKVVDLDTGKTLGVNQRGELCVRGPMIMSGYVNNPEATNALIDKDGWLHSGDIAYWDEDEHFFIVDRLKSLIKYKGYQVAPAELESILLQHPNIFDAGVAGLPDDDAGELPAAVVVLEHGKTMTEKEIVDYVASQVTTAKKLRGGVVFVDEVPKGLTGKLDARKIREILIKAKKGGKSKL

For `COC(=O)c1c(-c2cccnc2)csc1NC(=O)c1ccc2c(c1)OCO2`, the EC50 [1] was 770 nM (active), the IC50 [2] was 96.1 µM (active) and the IC50 [3] was > 100 µM (inactive). For the same molecule, the IC50 [4] was 37.5 µM (active) and the EC50 [5] was 8.11 µM (active).

With `COc1cc(/C=C2\SC(c3ccc(C)cc3)=NC2=O)cc(OC)c1O` the IC50 [2] was 1.37 µM (active), the IC50 [3] was 42.1 µM (active) and the IC50 [4] was 2.18 µM (active). The IC50 [6] was 16.5 µM (active) and the IC50 [7] was 63.1 µM (inactive).

In the case of `Cc1ccc(-n2ncc3c(NNC(=O)c4ccco4)ncnc32)cc1C`, the EC50 [8] is reported as 6.81 µM (active), the EC50 [9] is reported as > 300 µM (not active) and the EC50 [10] is reported as 142 µM (active).

In the case of `Cc1ccc(OCC(=O)N(Cc2nnc(-c3ccccc3Cl)o2)C2CC2)cc1C`, the IC50 [11] is reported as 31.9 µM (active).

For `COc1ccccc1-c1cc(C(=O)Nc2cc(C)nn2-c2ccccc2)no1`, the IC50 [2] was > 100 µM (inactive), the IC50 [3] was > 100 µM (inactive) and the IC50 [4] was 36 µM (active).

For `O=C(O)CN1C(=O)/C(=C\c2cc(Br)ccc2OCc2ccccc2Cl)SC1=S`, the IC50 [12] was 24.3 µM (active), the EC50 [13] was 1.97 µM (active) and the EC50 [14] was 5.9 µM (active). For the same molecule, the IC50 [15] was 4.7 µM (active) and the EC50 [16] was > 150 µM (not active).

For `O=C(CNC(=O)c1ccc([N+](=O)[O-])cc1)N/N=C\c1ccc(OC(=O)c2ccccc2)cc1`, the IC50 [15] was > 99 µM (inactive).

In the case of `C/C(=N\NC(=O)c1ccc(Cl)c(Cl)c1)c1ccccn1`, the EC50 [17] is reported as 1.37 µM (active), the EC50 [18] is reported as 380 nM (inconclusive) and the EC50 [19] is reported as 1.01 µM (active). The EC50 [20] was 674 nM (inconclusive), the IC50 [21] was > 80 µM (inactive) and the IC50 [22] was 3.03 µM (active). The EC50 [13] was 0.099 µM (active), the EC50 [23] was 656 nM (active) and the EC50 [14] was 1.84 µM (active). For the same molecule, the IC50 [24] was 563 nM (active), the EC50 [25] was 125 nM (active) and the AC50 [26] was 278 nM (active).
